Measurements as given in publication PMC5428333, “Novel protein acetyltransferase, Rv2170, modulates carbon and energy metabolism in Mycobacterium tuberculosis” (Scientific Reports, 2017).

Key:
Rv2170 [1] = molecular target: T1, Rv2170 (Mycobacterium tuberculosis, UniProt O53504)
Rv2170 [2] = molecular target: T1, Rv2170; remark: listed apart in the source

T1 sequence (O53504 whole entry): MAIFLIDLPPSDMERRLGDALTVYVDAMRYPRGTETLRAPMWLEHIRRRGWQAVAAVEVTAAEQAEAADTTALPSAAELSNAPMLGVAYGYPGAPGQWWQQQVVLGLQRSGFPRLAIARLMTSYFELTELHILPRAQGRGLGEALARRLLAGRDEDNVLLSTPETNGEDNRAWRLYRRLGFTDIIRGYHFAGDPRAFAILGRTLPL

SMILES	14C transfer to ICDH1, SDS-PAGE and phosphorimaging (Rv2170 [1])	DTNB assay of free CoA at 412 nm; also 14C transfer to ICDH1 by SDS-PAGE and pho (Rv2170 [2])
CCC(=O)SCCNC(=O)CCNC(=O)[C@H](O)C(C)(C)COP(=O)(O)OP(=O)(O)OC[C@H]1O[C@@H](n2cnc3c(N)ncnc32)[C@H](O)[C@@H]1OP(=O)(O)O [propionyl-CoA]	Rv2170 is also capable of modifying ICDH1 with the succinyl-CoA and propionyl-CoA donors	
CC(=O)SCCNC(=O)CCNC(=O)[C@H](O)C(C)(C)COP(=O)(O)OP(=O)(O)OC[C@H]1O[C@@H](n2cnc3c(N)ncnc32)[C@H](O)[C@@H]1OP(=O)(O)O [acetyl-CoA]		sigmoidal response in kinetic analysis of Rv2170 when the concentration of acetyl-CoA was increased
